pIC50, pKi: −log10 of the molar value. Several values for one entry are separate records, joined by “and”; a condition that tells them apart may be missing. Equal values may be shown once. Read-outs that look alike come from different tables or passages of the source.

Series [1] deals with imidazoline or α-2-adrenergic receptors. As to conditions: cited from earlier work.
The subject of series [2] is gut microbial polyamines, longevity. The conditions noted are these: arginine intake from 0 to 9 mg/g body weight; abolished after antibiotics use; cited from earlier work.
The test system of the next series is colonic microbiota. The series can be described thus: Prodigest short-term colonic incubations with fecal inocula of five donors. The series is classed as cell-based, human. The conditions noted are these: FIG. 5. Here is the method:
Fecal material was collected from five healthy adult donors. Fecal suspensions were prepared and mixed with an internally optimized cryoprotectant. The obtained suspensions were aliquoted, flash frozen and then preserved at −80° C. (cryostock). Just before the experiment, fecal samples were defrosted and immediately added to the reactors. A short-term screening assay typically consists of a colonic incubation of a single dose of a test compound under conditions representative for the proximal large intestine, using bacterial inocula from selected donors as microbial sources. At the start of the short-term colonic incubations, test ingredients were added to a sugar-depleted nutritional medium containing basal nutrients of the colon. Because nutrients of this sugar-depleted nutritional medium will also be fermented by the colonic microbiota, a blank containing only the sugar-depleted nutritional medium (without product) was included for each donor. Finally, fecal inocula of five donors were added (healthy adult humans with no history of antibiotic use 6 months preceding the experiment). […] Reactors were incubated for 48 h at 37° C., under shaking (90 rpm) and anaerobic conditions. The incubations were performed in fully independent reactors with sufficiently high volume in order to not only ensure robust microbial fermentation, but also to allow the collection of multiple samples over time. Sample collection enables assessment of metabolite production and thus to understand the complex microbial interactions that are taking place. An assessment was made of the change in pH, and of gas, SCFA, ammonium and lactate production at the start of the incubation and after 6 h, 24 h and 48 h. Quantitative deep shotgun sequencing was performed at the start and after 24 h and 48 h of incubation. Targeted metabolic analysis of eight polyamines, an amino acid and a neurotransmitter was performed at the start of the incubation, and after 6 h, 24 h and 48 h. Targeted metabolic analysis: Eight different polyamines were targeted, more specifically putrescine, agmatine, acetyl-agmatine, omithine, spermidine, spermine, citrulline and 4-guanidinobutanoic acid. Additionally, samples were analyzed for amino acid arginine and neurotransmitter gamma-Aminobutyric acid (GABA).

Series [3] in a line: No observed effect level (max dose without toxicity). The series is classed as in vivo. As to conditions: [33].
The conditions of series [4]: cited from earlier work.
In another series the test system is autophagy. The conditions noted are these: depending on organ/cell type; cited from earlier work.
The conditions of series [5]: rat, ten minutes after radiolabeled intravenous (IV) injection; cited from earlier work.
For a further series, the system named is polyamines synthesis. The conditions noted are these: mouse model of osteoporosis; cited from earlier work.
Series [6] deals with I2-Imidazoline binding sites. The conditions noted are these: Rat stomach membranes; cited from earlier work.
Series [7] has as its target I2-Imidazoline binding sites. As to conditions: Human atrial appendages; cited from earlier work.
Series [8] deals with I2-Imidazoline binding sites. As to conditions: Human platelet-purified internal membranes; cited from earlier work.
Series [9] has as its target σ2-Binding sites (Mus musculus, UniProt Q8VD00). The conditions noted are these: Mouse N1E-115 cells; cited from earlier work.
The target in series [10] is I1-Imidazoline binding sites. As to conditions: Bovine ventrolateral medulla; cited from earlier work.
The target in series [11] is I2-Imidazoline binding sites. As to conditions: Bovine endothelial cells; cited from earlier work.
The target of series [12] is σ2-Binding sites (Rattus norvegicus, UniProt Q5U3Y7). The conditions noted are these: Rat stomach membranes; cited from earlier work.
Sequence of σ2-Binding sites (Rattus norvegicus, UniProt Q5U3Y7) (Q5U3Y7 whole entry): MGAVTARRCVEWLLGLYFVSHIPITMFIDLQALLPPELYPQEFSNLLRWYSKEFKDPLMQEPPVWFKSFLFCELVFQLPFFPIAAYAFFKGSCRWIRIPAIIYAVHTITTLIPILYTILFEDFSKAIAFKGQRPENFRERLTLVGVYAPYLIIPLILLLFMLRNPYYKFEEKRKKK
The subject of the next series is HTC rat hepatoma cells. The conditions noted are these: cited from earlier work.
Series [13] deals with NMDA receptor, NR1-ζ/NR2-ε1 (Mus musculus, UniProt P35436+P35438). As to conditions: Recombinant receptor; cited from earlier work.
Sequence of NMDA receptor, NR1-ζ/NR2-ε1 (P35436 20-1464 limits assumed, other chains not shown): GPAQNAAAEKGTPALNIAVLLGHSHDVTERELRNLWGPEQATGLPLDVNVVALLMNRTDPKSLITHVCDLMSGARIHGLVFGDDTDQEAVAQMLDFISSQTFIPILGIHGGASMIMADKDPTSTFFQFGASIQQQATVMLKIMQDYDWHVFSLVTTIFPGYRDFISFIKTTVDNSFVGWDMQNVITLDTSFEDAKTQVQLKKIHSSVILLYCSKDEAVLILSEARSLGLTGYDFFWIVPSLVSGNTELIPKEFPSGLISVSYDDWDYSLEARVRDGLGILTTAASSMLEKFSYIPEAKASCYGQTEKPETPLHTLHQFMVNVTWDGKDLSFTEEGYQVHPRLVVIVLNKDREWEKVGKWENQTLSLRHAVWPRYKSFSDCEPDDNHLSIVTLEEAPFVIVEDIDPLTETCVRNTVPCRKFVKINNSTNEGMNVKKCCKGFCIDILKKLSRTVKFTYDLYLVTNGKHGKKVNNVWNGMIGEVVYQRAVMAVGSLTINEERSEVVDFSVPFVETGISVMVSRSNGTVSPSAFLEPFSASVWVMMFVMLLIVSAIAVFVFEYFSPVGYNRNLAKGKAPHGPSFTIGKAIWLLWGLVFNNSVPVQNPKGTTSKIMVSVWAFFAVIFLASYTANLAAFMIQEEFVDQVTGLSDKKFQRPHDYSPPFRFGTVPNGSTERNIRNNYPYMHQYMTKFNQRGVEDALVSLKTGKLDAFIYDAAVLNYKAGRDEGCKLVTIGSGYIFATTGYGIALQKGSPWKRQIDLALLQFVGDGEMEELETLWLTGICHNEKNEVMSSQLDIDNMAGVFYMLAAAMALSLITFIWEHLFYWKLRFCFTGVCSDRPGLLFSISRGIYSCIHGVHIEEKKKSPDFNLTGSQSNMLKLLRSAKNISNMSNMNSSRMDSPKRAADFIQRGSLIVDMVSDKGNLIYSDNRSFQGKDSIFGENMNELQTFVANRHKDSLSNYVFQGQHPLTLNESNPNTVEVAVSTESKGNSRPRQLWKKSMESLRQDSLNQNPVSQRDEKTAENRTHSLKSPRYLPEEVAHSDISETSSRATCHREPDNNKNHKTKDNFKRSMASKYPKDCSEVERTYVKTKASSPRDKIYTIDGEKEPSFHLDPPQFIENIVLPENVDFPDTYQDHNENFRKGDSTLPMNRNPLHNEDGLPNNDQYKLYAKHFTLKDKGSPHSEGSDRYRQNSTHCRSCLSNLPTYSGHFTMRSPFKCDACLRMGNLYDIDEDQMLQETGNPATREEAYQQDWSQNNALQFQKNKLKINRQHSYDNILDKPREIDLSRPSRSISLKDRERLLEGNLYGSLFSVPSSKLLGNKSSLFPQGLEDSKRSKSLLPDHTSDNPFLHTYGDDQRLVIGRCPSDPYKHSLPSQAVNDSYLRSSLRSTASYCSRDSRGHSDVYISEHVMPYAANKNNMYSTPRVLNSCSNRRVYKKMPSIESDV
The subject of series [14] is Presynaptic imidazoline receptor. As to conditions: Rabbit aorta; at 0.1 and 1 μM; cited from earlier work.
Another series deals with α2B-Adrenoceptors (Homo sapiens, UniProt P18089). The conditions noted are these: Human recombinant receptor; cited from earlier work.
Sequence of α2B-Adrenoceptors (P18089 whole entry): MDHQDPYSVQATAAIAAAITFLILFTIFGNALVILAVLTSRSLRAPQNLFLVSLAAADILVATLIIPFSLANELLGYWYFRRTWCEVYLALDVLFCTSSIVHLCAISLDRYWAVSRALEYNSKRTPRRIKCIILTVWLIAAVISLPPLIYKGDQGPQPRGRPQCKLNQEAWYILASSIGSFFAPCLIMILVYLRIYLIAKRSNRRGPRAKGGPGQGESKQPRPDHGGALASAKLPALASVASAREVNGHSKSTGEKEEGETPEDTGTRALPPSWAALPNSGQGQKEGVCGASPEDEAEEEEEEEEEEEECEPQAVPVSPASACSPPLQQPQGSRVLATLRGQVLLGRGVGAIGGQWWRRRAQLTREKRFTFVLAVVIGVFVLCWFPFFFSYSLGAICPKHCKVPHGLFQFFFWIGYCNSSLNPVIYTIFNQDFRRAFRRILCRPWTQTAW
Series [15] has as its system mouse kidney proximal tubule, Ras transformed NIH-3T3 fibroblast, mouse glomerular mesangial, human Schwann tumor, rat glomerular endothelial cells, human …. As to conditions: several ex-vivo and in-vitro cell assays; cited from earlier work.
In series [16] the target is NMDA receptor, polyamine binding site. The conditions noted are these: Rat cerebral cortex; cited from earlier work.
The next series has as its target α2-Adrenoceptors. As to conditions: Bovine adrenal cortex; cited from earlier work.
Series [17] addresses I2-Imidazoline binding sites. The conditions noted are these: Rat whole brain membranes; cited from earlier work.
Series [18] deals with NMDA receptor, MK-801 binding site. The conditions noted are these: Rat cerebral cortex; cited from earlier work.
For series [19], the target named is I2-Imidazoline binding sites. The conditions noted are these: Rat aorta smooth muscle cells; cited from earlier work.
For series [20], the system named is ODC and SSAT in liver and kidney. As to conditions: 456.6 mg/kg i.p., suiss female mice; cited from earlier work.
For a further series, the target named is α-2 adrenoreceptors. As to conditions: depending on organs/cell type; read-out: Affinity for α-2 adrenoreceptors (Ki); cited from earlier work.
The target in series [21] is NMDA receptor, NR1-ζ/NR2-ε3 (Mus musculus, UniProt P35438+Q01098). As to conditions: Recombinant receptor; cited from earlier work.
Sequence of NMDA receptor, NR1-ζ/NR2-ε3 (Q01098 20-1239, other chains not shown): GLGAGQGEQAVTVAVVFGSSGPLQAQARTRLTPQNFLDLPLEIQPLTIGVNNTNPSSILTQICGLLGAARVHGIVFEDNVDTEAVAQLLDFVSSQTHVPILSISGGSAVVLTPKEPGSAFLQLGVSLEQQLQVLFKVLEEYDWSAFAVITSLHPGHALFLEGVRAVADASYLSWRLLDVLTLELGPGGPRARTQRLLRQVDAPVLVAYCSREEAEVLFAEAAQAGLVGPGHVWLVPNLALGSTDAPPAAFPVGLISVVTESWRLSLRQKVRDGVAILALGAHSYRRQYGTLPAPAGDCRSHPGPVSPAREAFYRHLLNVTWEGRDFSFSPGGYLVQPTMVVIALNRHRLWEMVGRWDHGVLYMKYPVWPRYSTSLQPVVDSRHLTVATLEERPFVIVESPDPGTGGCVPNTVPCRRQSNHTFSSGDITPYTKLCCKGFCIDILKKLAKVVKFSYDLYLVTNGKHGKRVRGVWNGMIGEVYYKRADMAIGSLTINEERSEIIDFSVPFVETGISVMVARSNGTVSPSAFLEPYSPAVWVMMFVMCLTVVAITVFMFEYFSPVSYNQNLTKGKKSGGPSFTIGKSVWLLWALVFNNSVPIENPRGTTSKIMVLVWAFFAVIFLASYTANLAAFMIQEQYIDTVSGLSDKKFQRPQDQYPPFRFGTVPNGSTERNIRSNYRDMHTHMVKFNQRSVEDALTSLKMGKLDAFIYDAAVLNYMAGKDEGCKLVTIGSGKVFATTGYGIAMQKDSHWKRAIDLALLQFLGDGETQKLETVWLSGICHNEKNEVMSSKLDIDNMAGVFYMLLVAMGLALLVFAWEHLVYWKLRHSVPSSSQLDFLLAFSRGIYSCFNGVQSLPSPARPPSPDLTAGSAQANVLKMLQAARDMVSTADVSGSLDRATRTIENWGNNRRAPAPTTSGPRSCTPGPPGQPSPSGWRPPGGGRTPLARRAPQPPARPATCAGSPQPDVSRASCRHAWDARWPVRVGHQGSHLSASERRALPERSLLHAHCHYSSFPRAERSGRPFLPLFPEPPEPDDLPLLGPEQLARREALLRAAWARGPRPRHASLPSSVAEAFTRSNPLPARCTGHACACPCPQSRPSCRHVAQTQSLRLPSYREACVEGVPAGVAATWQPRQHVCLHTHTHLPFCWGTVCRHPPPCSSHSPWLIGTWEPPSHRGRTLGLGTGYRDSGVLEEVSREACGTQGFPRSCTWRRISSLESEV
Series [22] has as its target I1-Imidazoline binding sites. As to conditions: Rat stomach membranes; cited from earlier work.
Series [23] concerns the target NMDA receptor, NR1-ζ/NR2-ε2 (Mus musculus, UniProt P35438+Q01097). The conditions noted are these: Recombinant receptor; cited from earlier work.
In series [24] the target is Presynaptic imidazoline receptor. As to conditions: Human atrial appendages; cited from earlier work.
Series [25] addresses I2-Imidazoline binding sites. The conditions noted are these: Chicken brain membranes; cited from earlier work.
For series [26], the target named is I2-Imidazoline binding sites. As to conditions: Bovine adrenal chromaffin cells; cited from earlier work.
The target of another series is T1, NMDA receptor.
T1 construct: Ki; other: Rat cerebral membrane
The conditions noted are these: Rat cerebral membrane; cited from earlier work.

The target of series [27] is I1-Imidazoline binding sites. The conditions noted are these: Human platelet-purified plasma membranes; cited from earlier work.
A further series deals with 5-HT3 receptor (Mus musculus, UniProt P23979). The conditions noted are these: Mouse N1E-115 cells; cited from earlier work.
Sequence of 5-HT3 receptor (P23979 24-489): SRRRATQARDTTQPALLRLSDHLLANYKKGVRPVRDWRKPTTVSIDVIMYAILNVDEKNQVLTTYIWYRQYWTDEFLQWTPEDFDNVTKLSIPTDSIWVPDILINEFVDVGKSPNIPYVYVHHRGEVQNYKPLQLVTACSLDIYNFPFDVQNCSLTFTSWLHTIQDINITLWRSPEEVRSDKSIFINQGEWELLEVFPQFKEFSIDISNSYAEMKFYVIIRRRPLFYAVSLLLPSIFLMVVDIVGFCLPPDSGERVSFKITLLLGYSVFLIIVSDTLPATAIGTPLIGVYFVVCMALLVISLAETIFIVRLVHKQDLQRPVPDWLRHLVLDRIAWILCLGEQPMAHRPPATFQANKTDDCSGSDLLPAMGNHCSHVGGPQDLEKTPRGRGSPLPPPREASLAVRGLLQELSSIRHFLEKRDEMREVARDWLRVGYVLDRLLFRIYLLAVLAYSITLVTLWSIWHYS
Series [28] has as its target NMDA receptor, NR1-ζ/NR2-ε4 (Mus musculus, UniProt P35438+Q03391). As to conditions: Recombinant receptor; cited from earlier work.
Series [29] concerns the target I1-Imidazoline binding sites. As to conditions: Bovine adrenomedullary cell; cited from earlier work.
A further series addresses α2A-Adrenoceptors (Homo sapiens, UniProt P08913). The conditions noted are these: Human recombinant receptor; cited from earlier work.
The target in series [30] is I2-Imidazoline binding sites. As to conditions: Frog whole brain membranes; cited from earlier work.
Series [31] deals with Nicotinic acetylcholine receptors. As to conditions: Chick retina; cited from earlier work.
In series [32] the target is I2-Imidazoline binding sites. The conditions noted are these: Rabbit whole brain membranes; cited from earlier work.
A further series concerns the target α2C-Adrenoceptors (Homo sapiens, UniProt P18825). The conditions noted are these: Human recombinant receptor; cited from earlier work.
The conditions of series [33]: human, putrescine in test meal; cited from earlier work.

Sequence of α2A-Adrenoceptors (P08913 whole entry): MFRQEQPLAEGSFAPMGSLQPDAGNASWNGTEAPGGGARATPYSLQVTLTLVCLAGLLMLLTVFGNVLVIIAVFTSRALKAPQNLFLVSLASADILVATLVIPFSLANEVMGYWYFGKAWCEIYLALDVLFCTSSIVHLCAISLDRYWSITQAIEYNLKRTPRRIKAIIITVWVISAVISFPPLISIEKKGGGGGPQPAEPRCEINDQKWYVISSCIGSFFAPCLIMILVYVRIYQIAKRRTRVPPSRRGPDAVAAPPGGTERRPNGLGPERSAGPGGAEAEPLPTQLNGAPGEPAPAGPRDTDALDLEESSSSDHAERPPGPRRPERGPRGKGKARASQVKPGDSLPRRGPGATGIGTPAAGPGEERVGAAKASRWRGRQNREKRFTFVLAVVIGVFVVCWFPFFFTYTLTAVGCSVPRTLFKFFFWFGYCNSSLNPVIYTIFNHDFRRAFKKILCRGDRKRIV
Sequence of α2C-Adrenoceptors (P18825 whole entry): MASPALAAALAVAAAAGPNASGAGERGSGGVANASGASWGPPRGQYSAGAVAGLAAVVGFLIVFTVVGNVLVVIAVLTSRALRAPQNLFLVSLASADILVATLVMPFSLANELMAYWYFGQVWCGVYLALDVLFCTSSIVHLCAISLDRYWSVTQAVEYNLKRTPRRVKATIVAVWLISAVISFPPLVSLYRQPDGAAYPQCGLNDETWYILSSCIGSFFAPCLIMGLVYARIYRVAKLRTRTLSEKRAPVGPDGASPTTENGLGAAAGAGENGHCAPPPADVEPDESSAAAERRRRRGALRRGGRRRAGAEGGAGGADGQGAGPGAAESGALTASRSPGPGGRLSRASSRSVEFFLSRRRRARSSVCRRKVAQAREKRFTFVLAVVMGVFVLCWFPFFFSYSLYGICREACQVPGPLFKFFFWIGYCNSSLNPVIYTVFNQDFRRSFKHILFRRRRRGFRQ
Sequence of σ2-Binding sites (Mus musculus, UniProt Q8VD00) (Q8VD00 whole entry): as the sequence (Q5U3Y7 whole entry) above, with V4L, T5A, M26L, L33V, F71L, V105A, I118L, I127V, N136S, F169Y counted along it

What is called pKi is the Ki on a negative log10 scale, so that one unit is a factor of ten. For the molecule `N=C(N)NCCC[C@H](N)C(=O)O` [Arginine, arginine], the pKi in [1] was 2.30. Further, the “effect on fecal concentration of putrescine and spermidine” value in series [2] is listed as “increased”. The agmatine produced entry is on record as “about 5 μM” in the series on colonic microbiota (stool sample of donor A); “about 3 μM” in the series with colonic microbiota (stool sample of donor B); “did not produce agmatine” in the series on colonic microbiota (stool sample of donor C); “did not produce agmatine” with colonic microbiota (stool sample of donor D); “about 5 μM” in the series with colonic microbiota (stool sample of donor E).
In the case of `NCCCCNCCCN` [Spermidine, spermidine], the “no observed effect level (max dose without toxicity), total amount in brackets” value in series [3] is “(~5.4 g)”. For the same molecule, in series [4] ([33]), the “no observed effect level (max dose without toxicity)” value was 83 mg/kg body mg/kg body weight/day. Moreover, the “Dose required for cytoprotective effect/e.g. autophagy” value in the series with autophagy is 10 to 100 µM. Moreover, the plasma decrease in series [5] is given as 89%.
With `NCCCNCCCCNCCCN` [Spermine, spermine], in [5], the plasma decrease is reported as 30%.
As for `CC(=O)NCC(=O)O.CC(=O)NCC(=O)O.N=C(N)c1ccc(N=NNc2ccc(C(=N)N)cc2)cc1` [diminazene aceturate], in the series on polyamines synthesis, the “effect on warm-induced bone benefits” value is on record as “limited the warm-induced beneficial effects”.
By pIC50 is commonly meant the IC50 on a negative log10 scale, so that one unit is a factor of ten. In the case of `NCCCCN=C(N)N` [Agmatine, (4-aminobutyl) guanidine], the pKi was 3.58 in [6]; < 4.00 in series [7]; 4.13 in series [8]; 6.15 in [10]; 6.62 in series [11]; 3.18 on σ2-Binding sites [12]. The pKi on α2B-Adrenoceptors is 3.78; in series [16], 4.83; at α2-Adrenoceptors, 4.70 to 4.96 and 4.77; in [17], 3.38; in [18], 3.66; in series [19], 6.62. In addition, the pKi at α-2 adrenoreceptors was 3.79 to 6.10; in series [22] it was 7.01; in [24], < 3.52; in series [25], 6.20; in [26], 5.22; on NMDA receptor, 4.30. Besides, the pKi in series [27] is 7.48; at 5-HT3 receptor it was < 3.00; in series [29], 6.90; at α2A-Adrenoceptors, 4.33; in series [30] it was 5.12; in series [32], 3.07. Also, the pKi at α2C-Adrenoceptors is 4.58. Moreover, the pIC50 at σ2-Binding sites [9] is < 3.00; in series [13] it was 3.54; in series [21], 3.49; in [23] it was 3.48; on 5-HT3 receptor it was 3.15; in [28], 3.54. Further, the pIC50 in series [31] was < 3.00. In addition, the “level at which agmatine interferes with polyamine metabolism, nitric oxide synthase and promotes antiproliferative effects” value in the series on HTC rat hepatoma cells was 0.01 mM; in series [15] it was 1 mM. In addition, the “no observed effect level (max dose without toxicity)” value in [4] (in vivo) is recorded as 2.67 g daily. In addition, the Inhibition entry in series [14] is “Inhibition at 0.1 and 1 μM”. In addition, in series [20], the “effect on ODC and SSAT in liver and kidney” value is “inhibition of ODC and activation of SSAT”. In addition, in [20], the “effect on epithelial cell proliferation in kidney renal tubule” value is “partial reduction of epithelial cell proliferation”.
`NCCCCN` [Putrescine, putrescine]: the “no observed effect level (max dose without toxicity), total amount in brackets” value in [3] is listed as “(~12 g)”. The “no observed effect level (max dose without toxicity)” value in series [4] ([33]) is 180 mg/kg body mg/kg body weight/day. In addition, in series [33], the recovered in blood result is recorded as “Up to 20%”. Further, the plasma decrease in series [5] is 67%.
